Columns and labels:
rgRSV224 virus = assay: Antiviral activity: inhibition of GFP expression of rgRSV224 virus in HeLa cells; assay type: cell-based, respiratory syncytial virus (RSV); conditions: human respiratory syncytial virus, 72 h, read-out: WT activity EC50
Method: (§1) Black 96-well clear-bottom microtiter plates (Corning, Amsterdam, The Netherlands) were filled in duplicate using a customized robot system with serial 4-fold dilutions of compound in a final volume of 50 μl culture medium [RPMI medium without phenol red, 10% FBS, 0.04% gentamycin (50 mg/ml) and 0.5% DMSO]. Then, 100 μl of a HeLa cell suspension (5×10^4 cells/ml) in culture medium was added to each well followed by the addition of 50 μl rgRSV224 (MOI=0.02) virus in culture medium using a multidrop dispenser (Thermo Scientific, Erembodegem, Belgium). rgRSV224 virus is an engineered virus that includes an additional GFP gene (Hallak et al, 2000) and was in-licensed from the NIH (Bethesda, Md., USA). Medium, virus- and mock-infected controls were included in each test. Cells were incubated at 37° C. in a 5% CO2 atmosphere. Three days post-virus exposure, viral replication was quantified by measuring GFP expression in the cells by a MSM laser microscope (Tibotec, Beerse, Belgium). The EC50 was defined as the 50% inhibitory concentration for GFP expression. In parallel, compounds were incubated for three days in a set of white 96-well microtitier plates (Corning) and the cytotoxicity of compounds in HeLa cells was determined by measuring the ATP content of the cells using the ATPlite kit (PerkinElmer, Zaventem, Belgium) according to the manufacturer's instructions. The CC50 was defined as the 50% concentration for cytotoxicity.

in vitro = assay type: cell-based; conditions: human
Method: as §1

| Structure (SMILES) | EC50 (rgRSV224 virus) [µM] | CC50 at 3 days (in vitro) [µM] |
| --- | --- | --- |
| CS(=O)(=O)CCCn1c(Cn2c(=O)n(CC(F)(F)F)c3c(Cl)cccc32)cc2cc(Cl)ccc21 [Compound P1, 4-chloro-1-((5-chloro-1-(3-(methylsulfonyl)-propyl)-1H-indol-2-yl)methyl)-3-(2,2,2-trifluoroethyl)-1H-benzo[d]imidazo-2(3H)-one] | 0.398 | > 100 |
| O=c1n(Cc2cc3cc(Cl)ccc3n2CCCC(F)(F)F)c2cncc(Cl)c2n1CC(F)(F)F [Compound P2] | 0.1 | > 100 |
| CS(=O)(=O)CCCn1c(Cn2c(=O)n(C3CC3)c3c(Cl)cncc32)cc2cc(Cl)ccc21 [Compound P3] | 0.0199 | > 100 |
| Cc1cncc2c1n(C1CC1)c(=O)n2Cc1cc2cc(Cl)ccc2n1CCCS(C)(=O)=O [Compound P4] | 0.0199 | > 100 |
| CS(=O)(=O)CCCn1c(Cn2c(=O)n(CC(F)(F)F)c3c(Cl)cncc32)cc2cc(Cl)ccc21 [Compound P5, 7-chloro-3-((5-chloro-1-(3-(methylsulfonyl)propyl)-1H-indol-2-yl)-methyl)-1-(2,2,2-trifluoroethyl)-1H-imidazo[4,5-c]pyridin-2(3H)-one] | 0.0251 | 31.6 |
| CS(=O)(=O)CCCn1c(Cn2c(=O)n(C3CC3)c3c(Cl)cccc32)cc2cc(Cl)ccc21 [Compound P6] | 0.631 | 31.6 |
| O=c1n(Cc2cc3cc(Cl)ccc3n2CCCC(F)(F)F)c2cccc(Cl)c2n1CC(F)(F)F [Compound P7, 4-chloro-1-((5-chloro-1-(4,4,4-trifluorobutyl)-1H-indol-2yl)methyl)-3-(2,2,2-trifluoroethyl)-1H-benzo [d]imidazol-2(3H)-one] | – | > 100 |
| Cc1cncc2c1n(CC(F)(F)F)c(=O)n2Cc1cc2cc(Cl)ccc2n1CCCS(C)(=O)=O [Compound P8, 3-((5-chloro-1-(3-(methylsulfonyl)propyl)-1H-indol-2-yl)methyl)-7-methyl-1-(2,2,2-trifluoroethyl)-1H-imidazo[4,5-c]pyridin-2(3H)-one] | 0.1 | 50.1 |
| CC(C)CCn1c(Cn2c(=O)n(C3CC3)c3c(Cl)cccc32)nc2nc(Cl)ccc21 [Compound P9, 4-chloro-1-((5-chloro-1-isopentyl-1H-imidazo[4,5-b]pyridin-2-yl)-methyl)-3-cyclopropyl-1H-benzo[d]imidazol-2(3H)-one] | 0.794 | > 25 |
| Cc1cccc2c1n(C1CC1)c(=O)n2Cc1nc2nc(Cl)ccc2n1CCC(C)C [Compound P10, 1-((5-chloro-1-isopentyl-1H-imidazo[4,5-b]pyridin-2-yl)methyl)-3-cyclopropyl-4-methyl-1H-benzo[d]imidazol-2(3H)-one] | 0.398 | > 50 |
| Cc1cccc2c1n(C1CC1)c(=O)n2Cc1cc2nc(Cl)ccc2n1CCCC(F)(F)F [Compound P11, 1-((5-chloro-1-(4,4,4-trifluorobutyl)-1H-pyrrolo[3,2-b]pyridin-2-yl)-methyl)-3-cyclopropyl-4-methyl-1H-benzo[d]imidazol-2(3H)-one] | 6.31 | 12.6 |

Reference: patent US20150158862A1, “1,3-DIHYDRO-2H-BENZIMIDAZOL-2-ONE DERIVATIVES SUBSTITUTED WITH HETEROCYCLES AS RESPIRATORY SYNCYTIAL VIRUS ANTIVIRAL AGENTS” (Janssen R&D Ireland, priority 2012, published 2015)
